Common to all, as to experiment: MTT proliferation assay, single agent
Common to all, as to assay type: cell-based
On the technique in general: Tetrazolium assays rely on reduction of a dye to a coloured formazan, in cell work by metabolically active cells.

The test system of one assay is 435S. The note with it: Melanoma (melanocyte), BRAF V600E, 72 h, mean of several independent experiments. The method, then: (§1) The compound of formula (1) was tested using a Thiazolyl Blue Tetrazolium Bromide (MTT) proliferation assay in a panel of tumor cell lines of different origins.
(§2) All culture materials were obtained from Biological Industries (Kibbutz Beit Haemek, Israel) or Invitrogen (Paisley, Scotland, United Kingdom). The non-tumor cell lines HF and HACAT were provided by Vall d'Hebrón Hospital and GmbH, respectively. The PC9 naïve cell line was provided by Mayumi Ono and, the H3122, HCC78 and 11-18 by Daniel Costa. The PC9-GR1, PC9-GR2, PC9-GR3, PC9-GR4, PC9-GR5 and PC9-ER cell lines were derived in house by exposing the parental PC9 cell line to increasing concentrations of erlotinib (ER) or gefitinib (GR). The rest of the cell lines in which compound (1) was tested were purchased from ATCC (H23, H1975, H2228, A549, H460, Calu-6, H1650, SK-MES-1, EBC1, SNU1, AGS, N87, PC3, BxPC3, DLD1, HT29, SW48, SCC9,FaDu, AU565, Gingival, Prostate, SU-DHL-1 and A431). All cell lines were maintained in RPMI medium supplemented with 10% FBS, 50 µg/mL penicillin-streptomycin and 2 mM L-Glutamine. All cells were grown in a humidified atmosphere with 5% CO2 at 37°C.
(§3) Cell viability in response to single agent treatment was assessed by the Thiazolyl Blue Tetrazolium Bromide (MTT) (Sigma, St Louis, MO) assay. Cells from each cell line were seeded at 2000 to 10000 per well in 96-well plates. […] After treatment, cells were incubated with medium containing MTT (0.75 mg/mL in medium) for 1-2 h at 37°C. Culture medium with MTT was removed and formazan crystals reabsorbed in 100 µL DMSO (Sigma, St. Louis, MO). Cell viability was determined by measuring the absorbance at 492 nm, using a microplate reader (BioWhittaker, Walkersville, MD).
(§4) The IC50s shown are the mean of several independent experiments. Standard errors are also listed Table 2. SCC means squamous cell carcinoma, ADC means adenocarcinoma, GBM means glioblastoma.

The next assay relates to A431. The note with it: Homo sapiens, A-431, SCC, 72 h, mean of several independent experiments. As to the method: as §1, §2, §3, §4
In the next assay the test system is A549. The note with it: Homo sapiens, Lung ADC, KRAS, 72 h, mean of several independent experiments. The method, then: as §1, §2, §3, §4
Another assay concerns BxPC3. Particulars: Homo sapiens, BXPC-3, Pancreas, mut TP53, 72 h, mean of several independent experiments. The method, then: as §1, §2, §3, §4
For another assay, the system named is CD74-ROS1 (G2032). The note with it: Lung ADC, ROS1 translocated, 72 h, mean of several independent experiments. The method, then:
as §1, §2, §3, §4

For another assay, the system named is Calu6. The note with it: Homo sapiens, Calu-6, Lung ADC, KRAS, 72 h, mean of several independent experiments. The method, then:
as §1, §2, §3, §4

The subject of the next assay is FaDu. Particulars: Homo sapiens, SCC Head&Neck, DDR2 wt, 72 h, mean of several independent experiments. The method, then:
as §1, §2, §3, §4

The test system of another assay is H1568. The note with it: NCI-H1568, Lung ADC, CD74-NRG1, 72 h, mean of several independent experiments. The method, then: as §1, §2, §3, §4
The subject of a further assay is H1975. The note with it: Homo sapiens, NCI-H1975, Lung ADC, EGFR ex21, 72 h, mean of several independent experiments. The method, then:
as §1, §2, §3, §4

Another assay has as its system H2286. The note with it: Homo sapiens, NCI-H2286, SCC Lung, DDR2 mutated, 72 h, mean of several independent experiments. As to the method:
as §1, §2, §3, §4

A further assay has as its system H3122. Particulars: Homo sapiens, NCI-H3122, Lung ADC, ALK-EML4 (v1), 72 h, mean of several independent experiments. As to the method:
as §1, §2, §3, §4

The subject of another assay is H322. Particulars: NCI-H322, Lung BAC, CD74-NRG1, 72 h, mean of several independent experiments. As to the method: as §1, §2, §3, §4
The next assay concerns H520. Particulars: Homo sapiens, NCI-H520, SCC Lung, DDR2 wt, 72 h, mean of several independent experiments. The method, then:
as §1, §2, §3, §4

The subject of the next assay is HCC78. Particulars: Homo sapiens, Lung ADC, ROS1-SLC34A2, 72 h, mean of several independent experiments. The method, then: as §1, §2, §3, §4
A further assay relates to HT29. Particulars: Homo sapiens, HT-29, Colon ADC, BRAF V600E, 72 h, mean of several independent experiments. As to the method:
as §1, §2, §3, §4

Another assay has as its system L239R+T654M. The note with it: SCC Lung, DDR2 mutated, 72 h, mean of several independent experiments. The method, then:
as §1, §2, §3, §4

In the next assay the test system is PC9-ER. Particulars: Homo sapiens, PC-9/ER, Lung ADC, EGFR ex19, 72 h, mean of several independent experiments. As to the method: as §1, §2, §3, §4
A further assay deals with PC9-GR2. The note with it: Lung ADC, EGFR ex19, 72 h, mean of several independent experiments. The method, then:
as §1, §2, §3, §4

In the next assay the test system is PC9-GR4. Particulars: Lung ADC, EGFR ex19, 72 h, mean of several independent experiments. As to the method:
as §1, §2, §3, §4

A further assay relates to PC9. Particulars: Homo sapiens, PC-9, Lung ADC, EGFR ex19, 72 h, mean of several independent experiments. As to the method:
as §1, §2, §3, §4

A further assay relates to SCC9. Particulars: Homo sapiens, SCC-9, SCC Head&Neck, DDR2 wt, 72 h, mean of several independent experiments. The method, then: as §1, §2, §3, §4
The next assay concerns SK-MES-1. The note with it: Homo sapiens, SCC Lung, DDR2 wt, 72 h, mean of several independent experiments. As to the method:
as §1, §2, §3, §4

A further assay deals with SW48. Particulars: Homo sapiens, Colon ADC, EGFR ex18, 72 h, mean of several independent experiments. As to the method: as §1, §2, §3, §4
In the next assay the test system is WM793. The note with it: Homo sapiens, Melanoma, BRAF V600E, 72 h, mean of several independent experiments. The method, then: as §1, §2, §3, §4

As a reminder, the IC50 is the midpoint of a concentration-inhibition curve. Higher therefore signals lower potency. In the case of `Cn1c(=O)c(-c2c(Cl)cccc2Cl)cc2c(N)nc(Nc3ccccc3)nc21` [Compound (1), 4-amino-6-(2,6-dichlorophenyl)-8-methyl-2-(phenylamino)-pyrido[2,3-d]pyrimidin-7(8H)-one], the half-inhibitory concentration (IC50) in the assay with 435S was 1 µM; with A431, 1.35 µM; in the assay on A549 it was 0.49 µM; in the assay on BxPC3, 1.8 µM; in the assay with CD74-ROS1 (G2032), 2 µM; in the assay on Calu6, 0.72 µM. Further, the IC50 is 4.85 µM with FaDu; 2.43 µM in the assay on H1568; 2.07 µM in the assay with H1975; 0.05 µM with H2286; 1.34 µM with H3122; 4.35 µM with H322. Moreover, the IC50 amounted to 0.35 µM with H520; 0.92 µM with HCC78; 2 µM in the assay with HT29; 0.6 µM with L239R+T654M; 1.18 µM in the assay with PC9-ER; 2.16 µM in the assay with PC9-GR2. The IC50 was 2.1 µM with PC9-GR4; 2.85 µM in the assay on PC9; 4.35 µM in the assay on SCC9; 0.57 µM in the assay with SK-MES-1; 0.75 µM with SW48; 1.6 µM in the assay with WM793.
